In patent US7799794B2, “Treatment for cardiovascular disease” (Merck Sharp & Dohme Corp., priority 2000, dated 2010):
Read-outs that look alike come from different tables or passages of the source.

Key:
[1] = cited from earlier work
[2] = cited from earlier work; remark: listed apart in the source
Sprague-Dawley rats = assay: Enalapril or L-Arginine in hyperuricemic rats on low salt diet: blood pressure (Example 4); assay type: in vivo, rat; settings: for systolic blood pressure lower than the hyperuricemic controls: at 7 weeks, enalapril 1 mg/kg/d or L-Arginine 1% in drinking water, p<0.05; for effect on systolic blood pressure of hyperuricemic rats: treatment from the outset, 7 weeks
Procedure: Rats were placed on either low salt diet, low salt diet with 2% oxonic acid, low salt diet with oxonic acid and enalapril (1 mg/kg/d in drinking water), or low salt diet with oxonic acid and L-Arginine (1% in drinking water).
Am J Physiol 268:F1 164-76, 1995].

CCCCc1nc(Cl)c(CO)n1Cc1ccc(-c2ccccc2-c2nn[nH]n2)cc1 [Compound No. 9, losartan potassium]
Concentration of Uric Acid in serum ([1]; 25 mg/man oral, in hunger, 0 hr (when administered)): 5.2 ± 0.5 mg/dL
Concentration of Uric Acid in serum ([1]; 25 mg/man oral, in hunger, 4 hr): 4.8 ± 0.6 mg/dL
Concentration of Uric Acid in serum ([1]; 25 mg/man oral, in hunger, 24 hr): 4.6 ± 0.6 mg/dL
Concentration of Uric Acid in serum ([1]; 50 mg/man oral, in hunger, 0 hr (when administered)): 6.1 ± 1.4 mg/dL
Concentration of Uric Acid in serum ([1]; 50 mg/man oral, in hunger, 4 hr): 5.3 ± 1.3 mg/dL
Concentration of Uric Acid in serum ([1]; 50 mg/man oral, in hunger, 24 hr): 5.6 ± 1.4 mg/dL
Concentration of Uric Acid in serum ([1]; 100 mg/man oral, after meal, 4 hr): 4.9 ± 1.0 mg/h
Concentration of Uric Acid in serum ([1]; 100 mg/man oral, in hunger, 0 hr (when administered)): 5.9 ± 0.9 mg/dL
Concentration of Uric Acid in serum ([1]; 100 mg/man oral, in hunger, 4 hr): 4.6 ± 0.7 mg/dL
Concentration of Uric Acid in serum ([1]; 100 mg/man oral, in hunger, 24 hr): 5.2 ± 0.8 mg/dL
Concentration of Uric Acid in serum ([1]; 200 mg/man oral, in hunger, 0 hr (when administered)): 5.6 ± 0.7 mg/dL
Concentration of Uric Acid in serum ([1]; 200 mg/man oral, in hunger, 4 hr): 4.3 ± 0.9 mg/dL
Concentration of Uric Acid in serum ([1]; 200 mg/man oral, in hunger, 24 hr): 5.0 ± 0.9 mg/dL
uric acid excretion in urine (Concentration of Uric Acid) ([2]; 25 mg/man oral, in hunger, 4-8 hr): 32.4 ± 14.7 mg/h
uric acid excretion in urine (Concentration of Uric Acid) ([2]; 25 mg/man oral, in hunger, 8-12 hr): 28.7 ± 13.6 mg/h
uric acid excretion in urine (Concentration of Uric Acid) ([2]; 25 mg/man oral, in hunger, 12-24 hr): 19.7 ± 9.9 mg/h
uric acid excretion in urine (Concentration of Uric Acid) ([2]; 25 mg/man oral, in hunger, 24-40 hr): 33.2 ± 21.9 mg/h
uric acid excretion in urine (Concentration of Uric Acid) ([2]; 50 mg/man oral, in hunger, 0-4 hr): 52.8 ± 4.3 mg/h
uric acid excretion in urine (Concentration of Uric Acid) ([2]; 50 mg/man oral, in hunger, 8-12 hr): 39.1 ± 4.4 mg/h
uric acid excretion in urine (Concentration of Uric Acid) ([2]; 50 mg/man oral, in hunger, 12-24 hr): 22.2 ± 3.8 mg/h
uric acid excretion in urine (Concentration of Uric Acid) ([2]; 50 mg/man oral, in hunger, 24-40 hr): 26.6 ± 5.4 mg/h
uric acid excretion in urine (Concentration of Uric Acid) ([2]; 100 mg/man oral, after meal, 0-4 hr): 75.9 ± 19.0 mg/h
uric acid excretion in urine (Concentration of Uric Acid) ([2]; 100 mg/man oral, after meal, 4-8 hr): 59.0 ± 3.8 mg/h
uric acid excretion in urine (Concentration of Uric Acid) ([2]; 100 mg/man oral, after meal, 8-12 hr): 31.8 ± 4.5 mg/h
uric acid excretion in urine (Concentration of Uric Acid) ([2]; 100 mg/man oral, after meal, 12-24 hr): 19.7 ± 2.5 mg/h
uric acid excretion in urine (Concentration of Uric Acid) ([2]; 100 mg/man oral, after meal, 24-40 hr): 29.5 ± 4.1 mg/h
uric acid excretion in urine (Concentration of Uric Acid) ([2]; 100 mg/man oral, in hunger, 0-4 hr): 81.2 ± 15.7 mg/h
uric acid excretion in urine (Concentration of Uric Acid) ([2]; 100 mg/man oral, in hunger, 4-8 hr): 36.4 ± 7.7 mg/h
uric acid excretion in urine (Concentration of Uric Acid) ([2]; 100 mg/man oral, in hunger, 8-12 hr): 30.1 ± 6.8 mg/h
uric acid excretion in urine (Concentration of Uric Acid) ([2]; 100 mg/man oral, in hunger, 12-24 hr): 19.2 ± 4.2 mg/h
uric acid excretion in urine (Concentration of Uric Acid) ([2]; 100 mg/man oral, in hunger, 24-40 hr): 28.0 ± 7.2 mg/h
uric acid excretion in urine (Concentration of Uric Acid) ([2]; 200 mg/man oral, in hunger, 0-4 hr): 78.7 ± 15.3 mg/h
uric acid excretion in urine (Concentration of Uric Acid) ([2]; 200 mg/man oral, in hunger, 4-8 hr): 25.4 ± 6.6 mg/h
uric acid excretion in urine (Concentration of Uric Acid) ([2]; 200 mg/man oral, in hunger, 8-12 hr): 19.6 ± 5.2 mg/h
uric acid excretion in urine (Concentration of Uric Acid) ([2]; 200 mg/man oral, in hunger, 12-24 hr): 13.4 ± 2.3 mg/h
uric acid excretion in urine (Concentration of Uric Acid) ([2]; 200 mg/man oral, in hunger, 24-40 hr): 21.0 ± 3.0 mg/h

N=C(N)NCCC[C@H](N)C(=O)O [L-Arginine]
systolic blood pressure lower than the hyperuricemic controls (Sprague-Dawley rats): 25 mm Hg
effect on systolic blood pressure of hyperuricemic rats (Sprague-Dawley rats): largely prevented this increase

CCOC(=O)[C@H](CCc1ccccc1)N[C@@H](C)C(=O)N1CCC[C@H]1C(=O)O [enalapril]
systolic blood pressure lower than the hyperuricemic controls (Sprague-Dawley rats): 25 mm Hg
effect on systolic blood pressure of hyperuricemic rats (Sprague-Dawley rats): lowest systolic blood pressures
